Laboratory results: patent publication US20160310448A1, “Adamantane or Pinene Derivatives for Use in the Treatment of Chlamydiales Infections” (Commissariat a l'Energie Atomique et aux Energies …, priority 2015, published 2016)
“Also recorded” adds a separate entry of the source.

Tests used:
Assay type in all cases: cell-based
[1] = tested on: Chlamydia trachomatis (Ctr) strain L2/434/Bu; assay: Chlamydia trachomatis (Ctr) infectivity assay, HSP60 immunoblot of primary and progeny infection in HeLa229 cells
Text: (§1) Chlamydia trachomatis (Ctr). Laboratory-adapted strain L2/434/Bu (ATCC VR902B) was used in assays. Full biological and genetic information is available for this strain including complete genome sequence and defined proteome. This strain has a relatively low particle to infectivity ratio, perform efficient cell infection and has a higher viability than standard genital tract isolates with faster developmental cycle. Culture conditions have been described in (Wang Y., Kahane S., Cutcliffe L. T., Skilton R. J., Lambden P. R., Clarke I. N. Development of a transformation system for Chlamydia trachomatis: Restoration of glycogen biosynthesis by acquisition of a plasmid shuttle vector. PLoS Pathogen, 2011, 7(9):e1002258. doi: 10.1371/journal.ppat.1002258).
Compound application during Ctr infection. HeLa229 cells were pretreated with compound 20 in concentrations of 25, 50 and 75 μM for 30 min until Ctr (MOI1) were added to the cells. Compound 20 was present during infection.
Cells with primary infection were lysed 24 h post infection (hpi). To obtain progeny infection compound treated cells were lysed 48 hpi and lysate was used to infect fresh HeLa229 cells. Progeny infection was lysed 24 hpi and analyzed together with primary infection samples by immunoblot. Chlamydial growth was detected with antibodies against chlamydial HSP60 protein and Actin was used as loading control (FIG. 6).

[2] = tested on: Simkania negevensis (Sn) strain Z; assay: Sn infectivity assays (primary and progeny infection) in HeLa229 cells
Protocol: Simkania negevensis (Sn) strain Z (ATCC VR-1471) was prepared as described previously (Mehlitz A, Karunakaran K, Herweg J A, Krohne G, van de Linde S, Rieck E, Sauer M, Rudel T. The chlamydial organism Sn forms ER vacuole contact sites and inhibits ER-stress. Cell Microbiol 2014; 16(8):1224-1243).
Briefly, HeLa229 cells were grown to 50-70% confluence, were inoculated with Sn in RPMI1640 with 5% FBS, for 6 h at 35° C. in a humidified incubator at 5% CO2. Medium was replaced by infection medium (RPMI1640, Glutamax, 5% FBS, w/o HEPES) and growth was allowed for 3 days. Cells were mechanically detached and bacteria were released using ˜2-5 mm glass beads (Carl Roth). Low speed supernatant (600×g, 4° C. and 5 min) was subjected to high-speed centrifugation (20,000×g, 4° C. and 30 min) to pellet bacteria. Bacteria were washed twice with 5 ml SPG (250 mM sucrose, 50 mM sodium phosphate, 5 mM glutamate, pH 7.4), aliquoted and stored at '80° C. in SPG.
40,000 HeLa cells were seeded in 12-well cluster plates, inhibitor-treated and infected as indicated in the respective experiment.
For infectivity assays cells were either fixed and stained at indicated time points (FIGS. 2,4; inclusion formation/primary infection) or bacteria were released via one freeze thaw cycle (−70° C./37° C.) followed by mechanical release through pipetting and transfer to fresh HeLa229 cells (1:25-1:50, progeny/infectivity). Cells were centrifuged for 1 h at 35° C. and medium exchanged to infection medium. Progeny was fixed at day 3 post infection and processed for staining (FIG. 3) or harvested for immunoblotting (FIG. 1). Infectivity assays were imaged on an automated fluorescence microscope Leica DMIR (FIG. 4). Numbers and average sizes of the SCV as well as host cell numbers were determined via GroEL and DAPI staining and images were analysed and quantified using FIJI (ImageJ) and Excel (Microsoft).
In this progeny assay, bacteria are first grown in Hela299 cells treated with inhibitors (compound 20 at a concentration of 50 and 75 μM) and the infectious particles from this primary infection are applied to fresh cells in the absence of inhibitor to measure the bacterial load (GroEL immunoblot) and inclusion formation (immunofluorescence microscopy).

[3] = tested on: Chlamydia trachomatis (Ctr) strain L2/434/Bu; assay: microbe, parasite or virus in culture; conditions: for inhibition at 25 µM / inhibition at 75 µM: Chlamydia trachomatis, HeLa 229, progeny infection, HeLa229, MOI1, versus solvent-treated cells; for inhibition at 25 µM: read-out: Cellular protection at 25 μM; for inhibition at 75 µM: read-out: Cellular protection at 75 μM; for protection against Ctr progeny infection at 75 μM (in words) / protection against Ctr progeny infection at 25 μM (in words): HeLa229; for protection against Ctr progeny infection at 75 μM (in words): FIG. 7 and Table 1; for protection against Ctr progeny infection at 25 μM (in words): Table 1
Protocol: HeLa229 (ATCC CCL-2.1). Cells were grown in RPMI1640 medium (Glutamax, 10% FBS, w/o HEPES) (Invitrogen).
as §1
Compound application during Chlamydia trachomatis infection. HeLa229 cells were pretreated with compound #20 and its derivatives in concentrations of 25 μM and 75 μM for 1 hour until Chlamydia trachomatis (MOI1) were added to the cells. Compounds were present during infection. To obtain progeny infection, compound treated cells were lysed 24 h post infection (hpi) and lysate was used to infect fresh HeLa 229 cells.
Infected cells of progeny infection were fixed with 4% Paraformaldehyde 48 hpi. Cells were stained for DAPI and Chlamydia trachomatis were detected by GFP-signal. Images are representative of n=2 independent experiments. Quantification of infected cells by Chlamydia trachomatis was realized from microscopy images with Image J software (FIG. 7) and cellular protection by compounds at 25 μM and 75 μM was then determined (Table 1) by comparison with solvent-treated cells (control) with the following equation: […]

| Compound | effect on Ctr progeny infection at 50 μM ([1]; 50 μM, HSP60 immunoblot) | effect on Ctr progeny infection at 75 μM ([1]; 75 μM, HSP60 immunoblot) | effect on chlamydial development (primary Ctr infection) ([1]; 25, 50 and 75 μM, HSP60 immunoblot 24 hpi) | effect on Sn progeny infection ([2]; HeLa cells, 50 and 75 μM, GroEL immunoblot, relative inclusion number) | effect on Sn primary infection ([2]; HeLa cells, 50 and 75 μM, relative inclusion size, fluorescence microscopy) | concentration of maximal inhibition of Sn replication ([2]; HeLa cells, FIGS. 1, 2, 3 and 4) [µM] | subcellular structure of Sn inclusions by transmission electron microscopy ([2]; infected HeLa cells, versus DMSO-treated control) | inhibition at 25 µM [3] [%] | inhibition at 75 µM [3] [%] | protection against Ctr progeny infection at 75 μM (in words) [3] | protection against Ctr progeny infection at 25 μM (in words) [3] |
| --- | --- | --- | --- | --- | --- | --- | --- | --- | --- | --- | --- |
| COc1ccc(Br)cc1CNC12CC3CC(CC(C3)C1)C2 [Compound 20, (3S,5S,7S)-N-(5-bromo-2-methoxybenzyl)adamantan-1-amine] | strongly reduced amounts of Ctr in the progeny | totally blocked progeny infection | slight inhibitory effect | inhibitor effect; also recorded: inhibits | inhibitor effect; also recorded: inhibits | 75 | dramatically smaller and less sub-vacuoles and just few bacteria; also recorded: the number of Sn inclusions is reduced and the vacuole size is much reduced | 19.9 | 75.7 | – | – |
| COc1ccc(Br)cc1CNC12CC3CC(C)(CC(C)(C3)C1)C2 [RN-2-103, (1R,3R,5S,7R)-N-(5-bromo-2-methoxybenzyl)-3,5-dimethyladamantan-1-amine] | – | – | – | – | – | – | – | 66.9 | 100 | full protection | – |
| COc1ccc(Br)cc1CN[C@H]1C[C@H]2C[C@@H]([C@@H]1C)C2(C)C [VP332, (1S,2S,3S,5R)-N-(5-bromo-2-methoxybenzyl)-2,6,6-trimethylbicyclo[3.1.1]heptan-3-amine] | – | – | – | – | – | – | – | 100 | 100 | full protection | full protection |
| COc1ccc(I)cc1CN[C@H]1C[C@H]2C[C@@H]([C@@H]1C)C2(C)C [VP386, (1S,2S,3S,5R)-N-(5-iodo-2-methoxybenzyl)-2,6,6-trimethylbicyclo[3.1.1]heptan-3-amine] | – | – | – | – | – | – | – | 100 | 100 | full protection | full protection |
| C[C@@H]1[C@@H](NCc2ccc(I)cc2)C[C@H]2C[C@@H]1C2(C)C [VP390, (1S,2S,3S,5R)-N-(4-iodobenzyl)-2,6,6-trimethylbicyclo[3.1.1]heptan-3-amine] | – | – | – | – | – | – | – | 91.8 | 100 | full protection | – |
| O=C(Nc1ccc(S(=O)(=O)Nc2nccs2)cc1)C12CC3CC(CC(C3)C1)C2 [m3, (3R,5R,7R)-N-(4-(N-(thiazol-2-yl)sulfamoyl)phenyl)adamantane-1-carboxamide] | – | – | – | – | – | – | – | 46.9 | 87.8 | – | – |
| O=C(N/N=C/c1cccc([N+](=O)[O-])c1)NC12CC3CC(CC(C3)C1)C2 [m4, N-((3S,5S,7S)-adamantan-1-yl)-2-((E)-3-nitrobenzylidene)hydrazine-1-carboxamide] | – | – | – | – | – | – | – | 22.8 | 81.6 | – | – |
| O=C(CC12CC3CC(CC(C3)C1)C2)N/N=C/c1ccc([N+](=O)[O-])o1 [m9, 2-((3R,5R,7R)-adamantan-1-yl)-N′-((E)-(5-nitrofuran-2-yl)methylene)acetohydrazide] | – | – | – | – | – | – | – | 100 | 100 | full protection | full protection |
